Results reported in patent US8501446B2 (Vertex Pharmaceuticals Incorporated, priority 2004, dated 2013).

Assays:
Format in all cases: biochemical
ROCK I (AA 6-553) = target: T1, ROCK I (AA 6-553) (Homo sapiens, UniProt Q13464); experiment: ROCK inhibition assay, standard coupled enzyme system ("Enzyme"); conditions: enzyme-linked assay
T1 construct: ROCK I (AA 6-553)
Procedure, shortened: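 ROCK I (AA 6-553) at 45 nM and 30 °C with 45 μM ATP and 200 μM peptide, in 100 mM HEPES pH 7.5, 10 mM MgCl2, 25 mM NaCl, 2 mM DTT, 1.5% DMSO. ADP output read by a PK/LDH coupled system: 2.5 mM PEP, 350 μM NADH, 30 μg/ml PK, 10 μg/ml LDH.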

JAK3 = target: T2, JAK3 (Homo sapiens, UniProt P52333); experiment: JAK3 inhibition assay (standard radioactive enzyme assay); conditions: average Ki if more than one value determined
T2 sequence (P52333 1-1124): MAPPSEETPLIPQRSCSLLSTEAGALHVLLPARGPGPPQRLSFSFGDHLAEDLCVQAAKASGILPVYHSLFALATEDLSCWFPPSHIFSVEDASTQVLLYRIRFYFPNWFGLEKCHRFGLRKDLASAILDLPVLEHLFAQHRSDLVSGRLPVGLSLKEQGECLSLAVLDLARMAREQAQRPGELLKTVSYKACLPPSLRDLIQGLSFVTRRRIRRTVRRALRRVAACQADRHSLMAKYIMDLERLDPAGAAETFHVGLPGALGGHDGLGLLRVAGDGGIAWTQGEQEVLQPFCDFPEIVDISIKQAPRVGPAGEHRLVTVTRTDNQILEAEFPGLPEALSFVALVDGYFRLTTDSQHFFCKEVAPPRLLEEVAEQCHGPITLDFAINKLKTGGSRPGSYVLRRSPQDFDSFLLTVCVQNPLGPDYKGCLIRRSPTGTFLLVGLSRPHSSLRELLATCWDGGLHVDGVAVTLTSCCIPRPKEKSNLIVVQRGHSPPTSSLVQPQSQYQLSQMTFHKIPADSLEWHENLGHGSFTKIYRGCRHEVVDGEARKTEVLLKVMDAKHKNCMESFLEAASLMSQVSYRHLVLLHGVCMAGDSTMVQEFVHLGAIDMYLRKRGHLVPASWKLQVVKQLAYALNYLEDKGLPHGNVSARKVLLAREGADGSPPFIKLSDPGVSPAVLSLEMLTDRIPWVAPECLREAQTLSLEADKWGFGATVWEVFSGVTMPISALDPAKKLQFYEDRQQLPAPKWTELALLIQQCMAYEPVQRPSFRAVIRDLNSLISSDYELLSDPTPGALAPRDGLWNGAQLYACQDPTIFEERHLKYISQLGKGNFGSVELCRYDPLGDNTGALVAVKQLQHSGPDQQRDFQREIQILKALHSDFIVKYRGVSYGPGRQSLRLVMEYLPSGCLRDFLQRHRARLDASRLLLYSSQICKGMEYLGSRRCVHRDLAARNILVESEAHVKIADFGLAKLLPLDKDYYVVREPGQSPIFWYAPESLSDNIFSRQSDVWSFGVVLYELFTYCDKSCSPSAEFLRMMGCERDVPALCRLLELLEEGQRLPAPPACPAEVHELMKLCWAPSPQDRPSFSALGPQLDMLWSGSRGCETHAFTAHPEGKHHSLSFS
Method: (§1) Compounds were screened for their ability to inhibit JAK3 using a standard radioactive enzyme assay. 1.5 μL/well of a DMSO stock containing serial dilutions of a compound of the present invention (concentrations ranging from 667 μM to 46 nM) was placed in a 96 well polycarbonate plate. 50 μL per well of kinase buffer (100 mM HEPES (pH 7.4), 10 mM MgCl2, 25 mM NaCl, 1 mM DTT, and 0.01% bovine serum albumin (BSA)) containing 2 μM poly(Glu)4Tyr and 10 μM ATP was also added to the plate. To initiate the reaction, 50 μL kinase buffer containing 2 nM JAK3 enzyme was added. Final ATP concentration was 5 μM [γ-^33P] ATP (200 μCi ^33P ATP/μmol ATP (Perkin Elmer, Cambridge, Mass.). After 20 minutes at room temperature (25° C.), the reaction was stopped by adding 50 μL 20% trichloroacetic acid (TCA)/0.4 mM ATP to each well. The entire content of each well was then transferred to a 96 well glass fiber filter plate using a TomTek Cell Harvester. After washing, 60 μL scintillation fluid was added and ^33P incorporation detected using a Perkin Elmer TopCount. After removing mean background values for all of the data points the data was fit using Prism software to obtain a Ki(app). Inhibition of JAK2 was measured as above except that final poly(Glu)4Tyr concentration was 15 μM and final ATP concentration was 12 μM.

JAK2 = JAK2 (Homo sapiens, UniProt O60674); experiment: JAK2 inhibition assay (radioactive enzyme assay, as for JAK3); conditions: average Ki if more than one value determined
Chain of JAK2 (O60674 whole entry, species assumed): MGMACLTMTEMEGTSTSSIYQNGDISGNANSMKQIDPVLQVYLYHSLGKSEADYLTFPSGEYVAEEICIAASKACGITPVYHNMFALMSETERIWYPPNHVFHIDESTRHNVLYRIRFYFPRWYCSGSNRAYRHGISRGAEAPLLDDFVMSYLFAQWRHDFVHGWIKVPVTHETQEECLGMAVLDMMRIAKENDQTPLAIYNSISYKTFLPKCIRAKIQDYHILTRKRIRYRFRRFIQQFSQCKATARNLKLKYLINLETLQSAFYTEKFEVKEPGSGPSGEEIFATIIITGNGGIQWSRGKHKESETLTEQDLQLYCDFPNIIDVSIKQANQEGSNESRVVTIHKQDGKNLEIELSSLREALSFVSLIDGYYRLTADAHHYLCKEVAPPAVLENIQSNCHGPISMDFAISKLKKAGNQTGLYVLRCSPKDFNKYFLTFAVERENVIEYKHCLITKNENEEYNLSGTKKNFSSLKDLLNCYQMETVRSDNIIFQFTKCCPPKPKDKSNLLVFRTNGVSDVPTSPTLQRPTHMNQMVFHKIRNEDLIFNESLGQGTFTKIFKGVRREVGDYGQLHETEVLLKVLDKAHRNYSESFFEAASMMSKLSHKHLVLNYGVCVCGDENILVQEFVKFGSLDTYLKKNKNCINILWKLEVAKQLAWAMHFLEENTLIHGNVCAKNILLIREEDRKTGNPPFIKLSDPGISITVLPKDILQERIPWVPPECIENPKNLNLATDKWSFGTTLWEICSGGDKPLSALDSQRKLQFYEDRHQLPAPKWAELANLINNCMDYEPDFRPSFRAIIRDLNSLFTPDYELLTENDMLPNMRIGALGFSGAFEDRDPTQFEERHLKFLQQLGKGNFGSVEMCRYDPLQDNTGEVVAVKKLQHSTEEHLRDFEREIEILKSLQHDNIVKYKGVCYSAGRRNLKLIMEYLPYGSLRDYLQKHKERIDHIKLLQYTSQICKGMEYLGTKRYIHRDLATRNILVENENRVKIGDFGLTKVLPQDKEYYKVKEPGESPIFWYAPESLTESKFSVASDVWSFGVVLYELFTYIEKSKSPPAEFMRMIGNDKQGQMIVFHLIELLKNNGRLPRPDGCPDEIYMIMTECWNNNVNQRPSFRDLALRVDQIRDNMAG
Method: as §1

T1 sequence (Q13464 6-553, species assumed): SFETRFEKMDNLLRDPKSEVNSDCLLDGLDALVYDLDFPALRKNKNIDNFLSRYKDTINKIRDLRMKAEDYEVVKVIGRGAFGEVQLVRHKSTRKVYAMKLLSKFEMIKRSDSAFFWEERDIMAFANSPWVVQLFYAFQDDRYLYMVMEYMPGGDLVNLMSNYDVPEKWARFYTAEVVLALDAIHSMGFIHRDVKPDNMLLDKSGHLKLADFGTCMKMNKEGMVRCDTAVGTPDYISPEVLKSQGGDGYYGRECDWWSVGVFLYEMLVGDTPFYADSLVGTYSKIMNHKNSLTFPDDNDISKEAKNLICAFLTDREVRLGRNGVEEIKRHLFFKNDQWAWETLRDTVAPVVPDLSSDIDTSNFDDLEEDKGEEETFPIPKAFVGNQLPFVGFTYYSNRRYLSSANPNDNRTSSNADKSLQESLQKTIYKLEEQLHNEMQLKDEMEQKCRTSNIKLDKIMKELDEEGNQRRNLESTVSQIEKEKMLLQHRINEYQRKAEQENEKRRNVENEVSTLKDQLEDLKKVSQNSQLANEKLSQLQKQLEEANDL

| SMILES | Ki (ROCK I (AA 6-553)) [µM] | Ki (JAK3) [µM] | Ki (JAK2) [µM] |
| --- | --- | --- | --- |
| COc1ccc(OC(=O)Nc2cnc3[nH]cc(-c4cccc(N5C[C@@H](C)N(C(C)=O)[C@@H](C)C5)n4)c3c2)cc1 [Compound 71] | 0.5 to 5 | < 0.5 | < 0.5 |
| CC(=O)N1[C@H](C)CN(c2cccc(-c3c[nH]c4ncc(NC(=O)OC(C)C)cc34)n2)C[C@@H]1C [Compound 65] | 0.5 to 5 | < 0.5 | < 0.5 |
| CC(=O)N1[C@H](C)CN(c2cc(-c3nnn[nH]3)cc(-c3c[nH]c4ncc(Cl)cc34)n2)C[C@@H]1C [Compound 111] | 0.5 to 5 | < 0.5 | < 0.5 |
| CC(=O)N1[C@H](C)CN(c2cccc(-c3c[nH]c4ncc(NC(=O)[C@H]5CCCCN5)cc34)n2)C[C@@H]1C [Compound 171] | 0.5 to 5 | < 0.5 | < 0.5 |
| O=C(O)c1ccc(-c2c[nH]c3ncc(Cl)cc23)cc1 [Compound 104] | 0.5 to 5 | < 0.5 | < 0.5 |
| O=C(Nc1cccc(-c2c[nH]c3ncc(Cl)cc23)n1)OCc1ccccc1 [Compound 91] | 0.5 to 5 | 0.5 to 5 | 0.5 to 5 |
| CC(C)CC(=O)N1CCN(c2cccc(-c3c[nH]c4ncc(Cl)cc34)n2)CC1 [Compound 89] | 0.5 to 5 | < 0.5 | < 0.5 |
| O=C(O)Cc1cccc(-c2c[nH]c3ncc(Cl)cc23)c1 [Compound 178] | 0.5 to 5 | 0.5 to 5 | 0.5 to 5 |
| Cc1cc(-c2c[nH]c3ncc(Cl)cc23)nc2ccccc12 [Compound 197] | 0.5 to 5 | < 0.5 | 0.5 to 5 |
| Clc1cnc2[nH]cc(-c3ccccn3)c2c1 [Compound 184] | 0.5 to 5 | < 0.5 | 0.5 to 5 |
| CC(=O)Nc1cnc2[nH]cc(-c3cccc(N4CCCN(C(C)=O)CC4)n3)c2c1 [Compound 140] | 0.5 to 5 | < 0.5 | < 0.5 |
| O[C@H]1Cc2ccccc2[C@H]1Nc1cccc(-c2c[nH]c3ncc(Cl)cc23)n1 [Compound 136] | < 0.5 | < 0.5 | < 0.5 |
| O=C(O)c1cc(NCc2ccccc2)cc(-c2c[nH]c3ncc(Cl)cc23)c1 [Compound 147] | 0.5 to 5 | < 0.5 | < 0.5 |
| Clc1cnc2[nH]cc(-c3cccc(NC4CCc5ccccc54)n3)c2c1 (stereo not shown) [Compound 133] | 0.5 to 5 | < 0.5 | < 0.5 |
| Clc1cnc2[nH]cc(-c3ccc4ncccc4c3)c2c1 [Compound 200] | 0.5 to 5 | < 0.5 | 0.5 to 5 |
| CC(C)(O)c1cccc(-c2c[nH]c3ncc(Cl)cc23)n1 [Compound 203] | 0.5 to 5 | < 0.5 | < 0.5 |
| CN(C)c1cccc(-c2c[nH]c3ncc(Cl)cc23)c1 [Compound 144] | 0.5 to 5 | < 0.5 | < 0.5 |
| CC(=O)N1[C@H](C)CN(c2cccc(-c3c[nH]c4ncc(NC(=O)OCC(C)(C)C)cc34)n2)C[C@@H]1C [Compound 64] | 0.5 to 5 | < 0.5 | < 0.5 |
| CCC(=O)N1CCN(c2cccc(-c3c[nH]c4ncc(Cl)cc34)n2)CC1 [Compound 85] | 0.5 to 5 | < 0.5 | < 0.5 |
| CC(=O)N1[C@H](C)CN(c2cccc(-c3c[nH]c4ncc(NC(=O)c5ccc(F)cc5)cc34)n2)C[C@@H]1C [Compound 189] | 0.5 to 5 | < 0.5 | < 0.5 |
| COC(=O)N1CCCN(c2cccc(-c3c[nH]c4ncc(Cl)cc34)n2)CC1 [Compound 83] | 0.5 to 5 | < 0.5 | < 0.5 |

| SMILES | Ki (ROCK I (AA 6-553)) [µM] | Ki (JAK3) [µM] | Ki (JAK2) [µM] |
| --- | --- | --- | --- |
| Clc1cnc2[nH]cc(-c3cccc4cccnc34)c2c1 [Compound 202] | 0.5 to 5 | 0.5 to 5 | 0.5 to 5 |
| CC(=O)Nc1cc(-c2c[nH]c3ncc(Cl)cc23)nc(N2C[C@@H](C)N(C(C)=O)[C@@H](C)C2)c1 [Compound 160] | 0.5 to 5 | < 0.5 | < 0.5 |
| CC(=O)N1[C@H](C)CN(c2cccc(-c3c[nH]c4ncc(O)cc34)n2)C[C@@H]1C [Compound 77] | 0.5 to 5 | < 0.5 | < 0.5 |
| CC(=O)N1CCCN(c2cccc(-c3c[nH]c4ncc(C(=O)O)cc34)n2)CC1 [Compound 126] | 0.5 to 5 | 0.5 to 5 | > 5 |
| CCCOC(=O)Nc1cccc(-c2c[nH]c3ncc(Cl)cc23)n1 [Compound 88] | 0.5 to 5 | < 0.5 | < 0.5 |
| CCOC(=O)N1CCCN(c2cccc(-c3c[nH]c4ncc(Cl)cc34)n2)CC1 [Compound 84] | 0.5 to 5 | < 0.5 | < 0.5 |
| CC(=O)N1[C@H](C)CN(c2cccc(-c3c[nH]c4ncc(NC(=O)Oc5ccc(C)cc5)cc34)n2)C[C@@H]1C [Compound 61] | 0.5 to 5 | < 0.5 | < 0.5 |
| Clc1cnc2[nH]cc(-c3ccc4ccccc4c3)c2c1 [Compound 199] | 0.5 to 5 | < 0.5 | 0.5 to 5 |
| CC(=O)N1[C@H](C)CN(c2cccc(-c3c[nH]c4ncc(Cl)cc34)c2)C[C@@H]1C [Compound 146] | 0.5 to 5 | < 0.5 | < 0.5 |
| CC(=O)N1[C@H](C)CN(c2cccc(-c3c[nH]c4ncc(NC(=O)c5ccccc5Cl)cc34)n2)C[C@@H]1C [Compound 173] | < 0.5 | < 0.5 | < 0.5 |
| COC(=O)Nc1cccc(-c2c[nH]c3ncc(Cl)cc23)n1 [Compound 87] | 0.5 to 5 | < 0.5 | < 0.5 |
| CC(C)Oc1cccc(-c2c[nH]c3ncc(Cl)cc23)c1 [Compound 143] | 0.5 to 5 | < 0.5 | 0.5 to 5 |
| CCCC(=O)N1CCN(c2cccc(-c3c[nH]c4ncc(Cl)cc34)n2)CC1 [Compound 86] | 0.5 to 5 | < 0.5 | < 0.5 |
| CC(=O)N1[C@H](C)CN(c2cccc(-c3c[nH]c4ncc(C(=O)OCC(C)C)cc34)n2)C[C@@H]1C [Compound 74] | < 0.5 | < 0.5 | < 0.5 |
| C=CC(=O)Nc1cnc2[nH]cc(-c3cccc(N4CCCN(C(=O)CC#N)CC4)n3)c2c1 [Compound 138] | 0.5 to 5 | < 0.5 | < 0.5 |
| Cc1cc(-c2c[nH]c3ncc(Cl)cc23)c2ccccc2n1 [Compound 198] | 0.5 to 5 | 0.5 to 5 | > 5 |
| CCCOC(=O)Nc1cnc2[nH]cc(-c3cccc(N4C[C@@H](C)N(C(C)=O)[C@@H](C)C4)n3)c2c1 [Compound 62] | < 0.5 | < 0.5 | < 0.5 |
| COc1cnc2[nH]cc(-c3cccc(N4CCCN(C(C)=O)CC4)n3)c2c1 [Compound 112] | 0.5 to 5 | < 0.5 | < 0.5 |
| Cc1cccc(-c2c[nH]c3ncc(Cl)cc23)c1 [Compound 185] | – | < 0.5 | 0.5 to 5 |
| CC(=O)N1[C@H](C)CN(c2cccc(-c3c[nH]c4ncc(NC(=O)c5cccc(Cl)c5)cc34)n2)C[C@@H]1C [Compound 174] | – | < 0.5 | < 0.5 |
